Measurements as given in ChEMBL document CHEMBL3864192, “Discovery and Optimization of Two Eis Inhibitor Families as Kanamycin Adjuvants against Drug-Resistant M. tuberculosis” (ACS Med Chem Lett, 2016).
Calls of active or inactive are those of the source. No cut-off for these calls is given here.

Assays:
[1] = system: Mycobacterium tuberculosis; experiment: Inhibition of Mycobacterium tuberculosis K204 Eis assessed as kanamycin MIC at 29.7 uM preincubated for 24 hrs followed by kanamycin addition measured after 6 days by Alamar blue assay (Rvb >= 10 ug/ml)
[2] = system: Mycobacterium tuberculosis; experiment: Potentiation of kanamycin induced-antimicrobial activity against Mycobacterium tuberculosis H37Rv at 29.7 uM preincubated for 24 hrs followed by kanamycin addition measured after 6 days by Alamar blue assay; assay type: functional
[3] = system: Mycobacterium tuberculosis; experiment: Inhibition of Mycobacterium tuberculosis K204 Eis assessed as kanamycin MIC at 100 uM preincubated for 24 hrs followed by kanamycin addition measured after 6 days by Alamar blue assay (Rvb >= 10 ug/ml)
N-acetyltransferase Eis = biological target: T1, N-acetyltransferase Eis (Mycobacterium tuberculosis (strain ATCC 25618 / H37Rv), UniProt P9WFK7); experiment: Inhibition of Mycobacterium tuberculosis H37Rv Eis expressed in Escherichia coli BL21(DE3) using Acetyl-CoA as substrate preincubated for 10 mins followed by substrate addition measured every 30 sec for 10 mins
T1 sequence (P9WFK7 whole entry): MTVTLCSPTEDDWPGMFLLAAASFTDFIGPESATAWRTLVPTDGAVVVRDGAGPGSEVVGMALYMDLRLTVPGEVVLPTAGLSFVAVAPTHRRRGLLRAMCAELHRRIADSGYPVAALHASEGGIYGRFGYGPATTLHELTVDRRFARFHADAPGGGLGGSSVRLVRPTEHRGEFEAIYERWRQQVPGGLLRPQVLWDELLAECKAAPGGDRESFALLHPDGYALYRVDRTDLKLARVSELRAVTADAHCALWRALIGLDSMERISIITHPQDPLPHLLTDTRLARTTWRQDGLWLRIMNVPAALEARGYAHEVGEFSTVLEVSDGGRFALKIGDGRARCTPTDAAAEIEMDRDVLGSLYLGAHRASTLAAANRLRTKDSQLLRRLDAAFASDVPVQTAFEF

[4] = system: Mycobacterium tuberculosis; experiment: Potentiation of kanamycin induced-antimicrobial activity against Mycobacterium tuberculosis H37Rv at 100 uM preincubated for 24 hrs followed by kanamycin addition measured after 6 days by Alamar blue assay; assay type: functional
[5] = system: Mycobacterium tuberculosis; experiment: Inhibition of Mycobacterium tuberculosis K204 Eis assessed as kanamycin MIC at 52.6 uM preincubated for 24 hrs followed by kanamycin addition measured after 6 days by Alamar blue assay (Rvb >= 10 ug/ml)
[6] = system: Mycobacterium tuberculosis; experiment: Potentiation of kanamycin induced-antimicrobial activity against Mycobacterium tuberculosis H37Rv at 52.6 uM preincubated for 24 hrs followed by kanamycin addition measured after 6 days by Alamar blue assay; assay type: functional
[7] = system: Mycobacterium tuberculosis; experiment: Potentiation of kanamycin induced-antimicrobial activity against Mycobacterium tuberculosis H37Rv at 32.6 uM preincubated for 24 hrs followed by kanamycin addition measured after 6 days by Alamar blue assay; assay type: functional
[8] = system: Mycobacterium tuberculosis; experiment: Inhibition of Mycobacterium tuberculosis K204 Eis assessed as kanamycin MIC at 32.6 uM preincubated for 24 hrs followed by kanamycin addition measured after 6 days by Alamar blue assay (Rvb >= 10 ug/ml)
[9] = biological target: T2, N-acetyltransferase Eis (Mycobacterium tuberculosis (strain ATCC 25618 / H37Rv)) (UniProt P9WFK7); experiment: Inhibition of Mycobacterium tuberculosis H37Rv Eis expressed in Escherichia coli BL21(DE3) at 20 uM using Acetyl-CoA as substrate after 5 mins by HTS assay
T2 sequence (whole entry): T1 sequence (P9WFK7 whole entry)

[10] = system: Mycobacterium tuberculosis; experiment: Inhibition of Mycobacterium tuberculosis K204 Eis assessed as kanamycin MIC at 8.9 uM preincubated for 24 hrs followed by kanamycin addition measured after 6 days by Alamar blue assay (Rvb >= 10 ug/ml)
[11] = system: Mycobacterium tuberculosis; experiment: Potentiation of kanamycin induced-antimicrobial activity against Mycobacterium tuberculosis H37Rv at 8.9 uM preincubated for 24 hrs followed by kanamycin addition measured after 6 days by Alamar blue assay; assay type: functional
[12] = system: Mycobacterium tuberculosis; experiment: Inhibition of Mycobacterium tuberculosis K204 Eis assessed as kanamycin MIC at 25.1 uM preincubated for 24 hrs followed by kanamycin addition measured after 6 days by Alamar blue assay (Rvb >= 10 ug/ml)
[13] = system: Mycobacterium tuberculosis; experiment: Potentiation of kanamycin induced-antimicrobial activity against Mycobacterium tuberculosis H37Rv at 25.1 uM preincubated for 24 hrs followed by kanamycin addition measured after 6 days by Alamar blue assay; assay type: functional
[14] = system: Mycobacterium tuberculosis; experiment: Inhibition of Mycobacterium tuberculosis K204 Eis assessed as kanamycin MIC at 15.5 uM preincubated for 24 hrs followed by kanamycin addition measured after 6 days by Alamar blue assay (Rvb >= 10 ug/ml)
[15] = system: Mycobacterium tuberculosis; experiment: Potentiation of kanamycin induced-antimicrobial activity against Mycobacterium tuberculosis H37Rv at 15.5 uM preincubated for 24 hrs followed by kanamycin addition measured after 6 days by Alamar blue assay; assay type: functional
[16] = system: Mycobacterium tuberculosis; experiment: Inhibition of Mycobacterium tuberculosis K204 Eis assessed as kanamycin MIC at 1.5 uM preincubated for 24 hrs followed by kanamycin addition measured after 6 days by Alamar blue assay (Rvb >= 10 ug/ml)
[17] = system: Mycobacterium tuberculosis; experiment: Potentiation of kanamycin induced-antimicrobial activity against Mycobacterium tuberculosis H37Rv at 1.5 uM preincubated for 24 hrs followed by kanamycin addition measured after 6 days by Alamar blue assay; assay type: functional
[18] = system: Mycobacterium tuberculosis; experiment: Potentiation of kanamycin induced-antimicrobial activity against Mycobacterium tuberculosis H37Rv at 64.5 uM preincubated for 24 hrs followed by kanamycin addition measured after 6 days by Alamar blue assay; assay type: functional
[19] = system: Mycobacterium tuberculosis; experiment: Inhibition of Mycobacterium tuberculosis K204 Eis assessed as kanamycin MIC at 64.5 uM preincubated for 24 hrs followed by kanamycin addition measured after 6 days by Alamar blue assay (Rvb >= 10 ug/ml)
[20] = system: Mycobacterium tuberculosis; experiment: Potentiation of kanamycin induced-antimicrobial activity against Mycobacterium tuberculosis H37Rv at 33.9 uM preincubated for 24 hrs followed by kanamycin addition measured after 6 days by Alamar blue assay; assay type: functional
[21] = system: Mycobacterium tuberculosis; experiment: Inhibition of Mycobacterium tuberculosis K204 Eis assessed as kanamycin MIC at 33.9 uM preincubated for 24 hrs followed by kanamycin addition measured after 6 days by Alamar blue assay (Rvb >= 10 ug/ml)
[22] = system: Mycobacterium tuberculosis; experiment: Inhibition of Mycobacterium tuberculosis K204 Eis assessed as kanamycin MIC at 54.2 uM preincubated for 24 hrs followed by kanamycin addition measured after 6 days by Alamar blue assay (Rvb >= 10 ug/ml)
[23] = system: Mycobacterium tuberculosis; experiment: Potentiation of kanamycin induced-antimicrobial activity against Mycobacterium tuberculosis H37Rv at 54.2 uM preincubated for 24 hrs followed by kanamycin addition measured after 6 days by Alamar blue assay; assay type: functional

Row | SMILES | MIC [3] [mg/L] | IC50 (N-acetyltransferase Eis) [µM] | MIC [4] [mg/L] | also measured
1 | O=C(CN1C(=O)C2(OCCO2)c2ccccc21)c1cccc(F)c1 |  |  |  | MIC [1]: 2.5 to 5 mg/L; MIC [2]: ≤ 1.25 mg/L
2 | COC(=O)c1cc2occc2n1CC(=O)C(C)(C)C | > 10 | > 200 | ≤ 1.25 | 
3 | O=C(CN1C(=O)C2(OCCO2)c2ccccc21)c1ccccc1F | 10 |  | ≤ 1.25 | 
4 | COC(=O)c1cc2occc2n1CC(=O)c1cccc(Br)c1 |  | 0.5 |  | MIC [5]: > 10 mg/L; MIC [6]: ≤ 1.25 mg/L
5 | COC(=O)c1cc2occc2n1CC(=O)c1ccc(C)cc1 | 5 to 10 |  | ≤ 1.25 | 
6 | O=C(CN1C(=O)C2(OCCO2)c2ccccc21)c1ccccc1 |  | 0.33 |  | MIC [7]: ≤ 1.25 mg/L; MIC [8]: 5 mg/L
7 | COC(=O)c1cc2occc2n1CC(=O)c1ccccc1 | 5 to 10 |  | ≤ 1.25 | inhibition [9]: Active
8 | COC(=O)c1cc2occc2n1CC(=O)c1ccc2ccccc2c1 | 10 |  | ≤ 1.25 | 
9 | COc1cccc(C(=O)CN2C(=O)C3(OCCO3)c3ccccc32)c1 | > 10 |  | ≤ 1.25 | 
10 | O=C(CN1C(=O)C2(OCCO2)c2ccccc21)c1ccc(Br)cc1 | > 10 | > 200 | ≤ 1.25 | inhibition [9]: Active
11 | O=C(CN1C(=O)C2(OCCO2)c2ccccc21)c1cccc([N+](=O)[O-])c1 | 5 to 10 |  | ≤ 1.25 | 
12 | O=C(CN1C(=O)C2(OCCO2)c2ccccc21)c1ccc(F)cc1 |  | 0.09 |  | MIC [10]: 5 mg/L; inhibition [9]: Active; MIC [11]: ≤ 1.25 mg/L
13 | COC(=O)c1cc2occc2n1CC(=O)c1cccc(Cl)c1 |  |  |  | MIC [12]: > 10 mg/L; MIC [13]: ≤ 1.25 mg/L
14 | CCC(=O)CN1C(=O)C2(OCCO2)c2ccccc21 | > 10 | > 200 | ≤ 1.25 | 
15 | O=C(CN1C(=O)C2(OCCO2)c2ccccc21)c1ccc(Cl)cc1 | 5 to 10 | 2.2 | ≤ 1.25 | inhibition [9]: Active
16 | CC(C)(C)C(=O)CN1C(=O)C2(OCCO2)c2ccccc21 | > 10 | > 200 | ≤ 1.25 | 
17 | COC(=O)c1cc2occc2n1CC(=O)c1ccccc1F | 10 |  | ≤ 1.25 | 
18 | COC(=O)c1cc2occc2n1CC(=O)c1cccc(OC)c1 | > 10 | > 200 | ≤ 1.25 | 
19 | O=C(CN1C(=O)C2(OCCO2)c2ccccc21)c1ccc2ccccc2c1 | 10 |  | ≤ 1.25 | 
20 | COC(=O)c1cc2occc2n1CC(=O)c1cccc(F)c1 |  |  |  | MIC [14]: 10 mg/L; MIC [15]: ≤ 1.25 mg/L
21 | O=C(CN1C(=O)C2(OCCO2)c2ccccc21)c1cccc(Cl)c1 |  |  |  | MIC [16]: > 10 mg/L; MIC [17]: ≤ 1.25 mg/L
22 | Cc1ccc(C(=O)CN2C(=O)C3(OCCO3)c3ccccc32)cc1 | 5 to 10 |  | ≤ 1.25 | 
23 | COC(=O)c1cc2occc2n1CC(=O)c1ccc(Cl)cc1 |  |  |  | MIC [18]: ≤ 1.25 mg/L; MIC [19]: > 10 mg/L
24 | CCC(=O)Cn1c(C(=O)OC)cc2occc21 | > 10 | > 200 | ≤ 1.25 | 
25 | COC(=O)c1cc2occc2n1CC(=O)c1ccc(F)cc1 |  | 0.3 |  | MIC [20]: ≤ 1.25 mg/L; MIC [21]: 10 mg/L
26 | O=C(CN1C(=O)C2(OCCO2)c2ccccc21)c1cccc(Br)c1 |  |  |  | MIC [22]: 5 to 10 mg/L; MIC [23]: ≤ 1.25 mg/L
27 | COC(=O)c1cc2occc2n1CC(=O)c1ccc(Br)cc1 | > 10 |  | ≤ 1.25 | 
